PubChem BioAssay AID435014 (Vanderbilt High Throughput Screening Facility, 2010)
Activity calls are given as the source filed them.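 The calls were made as follows: active = dose response that fits an S-shaped curve with fit quality R squared above 0.5; inactive = the rest.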

Each compound was assayed against G protein-activated inward rectifier potassium channel 1 (Rattus norvegicus) (UniProt P63251) (assay: alpha2C activation measured by GIRK thallium influx – cell-based, thallium flux, dose response (AID 435014)). Details: HEK293 alpha2C/GIRK1/2, thallium flux fluorescence.
Chain of G protein-activated inward rectifier potassium channel 1 (Rattus norvegicus) (P63251 whole entry, looked up): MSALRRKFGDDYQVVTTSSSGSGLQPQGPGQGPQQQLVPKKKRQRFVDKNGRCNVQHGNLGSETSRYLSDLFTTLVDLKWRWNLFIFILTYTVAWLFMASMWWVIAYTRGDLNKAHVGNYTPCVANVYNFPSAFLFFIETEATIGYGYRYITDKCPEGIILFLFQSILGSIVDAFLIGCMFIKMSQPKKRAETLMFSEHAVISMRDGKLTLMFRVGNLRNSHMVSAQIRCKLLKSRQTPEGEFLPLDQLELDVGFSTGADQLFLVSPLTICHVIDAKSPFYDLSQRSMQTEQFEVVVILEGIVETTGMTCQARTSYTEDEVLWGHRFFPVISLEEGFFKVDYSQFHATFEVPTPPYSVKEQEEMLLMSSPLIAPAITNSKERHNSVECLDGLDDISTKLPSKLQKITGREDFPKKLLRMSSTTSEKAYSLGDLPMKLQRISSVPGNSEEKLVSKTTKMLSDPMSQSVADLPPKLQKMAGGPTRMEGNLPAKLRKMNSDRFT
`C[C@H]1OC[C@@H](C[N+](C)(C)C)O1` was tested, and the EC50 was 393 nM.
`CN(C)c1ccc(/C=C/C(O)=C2/C(=O)N(C)C3(C)CC2c2ccccc2O3)cc1` (stereo not given) showed an EC50 of 1990 nM.
In the case of `Cc1c2ccncc2c(C)c2c1[nH]c1ccccc12`, the EC50 is reported as 3080 nM.
Work on `CC(=O)OCC[N+](C)(C)C` yielded an EC50 of 134 nM.
In the case of `Brc1c(NC2=NCCN2)ccc2nccnc12`, the EC50 is reported as 82 nM.

Same assay, conditions: HEK293 alpha2C/GIRK1/2, thallium flux fluorescence; at 10 µM (top of the series)
`N#Cc1ccccc1Cn1c(=O)n(Cc2ccc(C(=O)NCc3ccco3)cc2)c(=O)c2ccccc21` was tested, and the activation was “inactive”.
With `CCCCC(=O)O[C@H]1CC[C@H]2[C@@H]3CCc4cc(O)ccc4[C@H]3CC[C@]12C` the activation was “inactive”.
With `C/C(Cl)=C/Cn1c(SCc2ccc(Cl)cc2)nc2c1c(=O)[nH]c(=O)n2C` the activation was “inactive”.
`CCOc1nc(-c2ccccc2)ccc1-c1noc(-c2ccc(OC)c(OC)c2)n1` was tested, and the activation was “inactive”.
With `CCOC(=O)c1c(-c2ccc(C)o2)csc1NC(=O)COC(=O)c1cccs1` the activation was “inactive”.
In the case of `Cc1sccc1C1C(C#N)=C(N)SC(N)=C1C#N`, the activation is reported as “inactive”.
In the case of `C=CCn1c(=S)[nH]c2ccccc2c1=O`, the activation is reported as “inactive”.
In the case of `Cc1ccc(-c2cc(C(F)F)nc(N3CCC(C)CC3)n2)cc1`, the activation is reported as “inactive”.
For `COCCOC(=O)c1c(C)oc2ccc(OC(=O)COc3c(F)c(F)c(F)c(F)c3F)cc12`, the activation was “inactive”.
For `COc1cccc2c1C(=O)c1c(O)c3c(c(O)c1C2=O)C[C@@](O)(C(=O)CO)C[C@@H]3O[C@H]1C[C@H](N)[C@H](O)[C@H](C)O1`, the activation was “inactive”.
For `Cc1ccc(-c2nn(-c3ccccc3)cc2/C=C(\C#N)c2cccc(C#N)c2)o1`, the activation was “inactive”.
In the case of `CCOC(=O)c1ccc(NC(=O)NC(C)C2CCCO2)cc1` (stereo not given), the activation is reported as “inactive”.
With `N#CCc1nc(CSc2nc3ccccc3s2)cs1` the activation was “inactive”.
For `COC(=O)c1ccccc1NC(=O)c1noc2c1CC(C(C)(C)C)CC2` (stereo not given), the activation was “inactive”.
With `CC(=O)OC(C)C[N+](C)(C)C` (stereo not given) the activation was “inactive”.
In the case of `COc1ccc(-c2oc3ncn4nc(COc5ccccc5)nc4c3c2-c2ccc(OC)cc2)cc1`, the activation is reported as “inactive”.
In the case of `COc1ccc(-c2noc(CCC(=O)Nc3nc4ccccc4s3)n2)cc1`, the activation is reported as “inactive”.
For `O=C(NCc1ccco1)c1cc2cc3ccc(Cl)cc3nc2o1`, the activation was “inactive”.
`c1ccc2c(-c3nc(C4CCCCC4)no3)cc(-c3ccncc3)nc2c1` was tested, and the activation was “inactive”.
With `CC(C)(C)c1cc(-c2ccco2)c(C#N)c(SCC#N)n1` the activation was “inactive”.
In the case of `CSc1nc2sc3c(c2c(=O)[nH]1)CCC(C)C3` (stereo not given), the activation is reported as “inactive”.
In the case of `CCCOc1ccc(-c2nnn(CC(=O)Nc3cccc(C(=O)OC)c3)n2)cc1`, the activation is reported as “inactive”.
For `CCc1cc2c(=O)c(-c3ccc4c(c3)OCCO4)coc2cc1OC(=O)c1ccco1`, the activation was “inactive”.
With `O=C(NCCSCc1ccco1)Nc1cccc(Cl)c1` the activation was “inactive”.
With `COc1ccccc1NC(=O)c1oc2ccccc2c1NC(=O)c1cc(OC)c(OC)c(OC)c1` the activation was “inactive”.
For `CCOC(=O)CSc1nc2cc(C(=O)NCc3ccco3)ccc2c(=O)n1-c1ccc(F)cc1`, the activation was “inactive”.
In the case of `O=c1c2ccccc2sn1-c1ccc(S(=O)(=O)N2CCCCC2)cc1`, the activation is reported as “inactive”.
In the case of `COC(=O)c1ccc(-c2sc3nc(N4CCOCC4)c4c(c3c2N)CCCC4)o1`, the activation is reported as “inactive”.
In the case of `N#Cc1nc(COc2ccc(Br)cc2)oc1N1CCN(Cc2ccccc2)CC1`, the activation is reported as “inactive”.
`CC1(C)Cc2c(C#N)c(SCCOc3ccccc3)nc(N3CCOCC3)c2CO1` was tested, and the activation was “inactive”.
For `Cc1c(C(=O)NC2CCCc3ccccc32)oc2ccc(S(=O)(=O)N3CCOCC3)cc12` (stereo not given), the activation was “inactive”.
With `O=C(c1ccc(Cl)cc1)N1CCCCC(Sc2nnc(-c3ccc4c(c3)OCO4)o2)C1=O` (stereo not given) the activation was “inactive”.
In the case of `CCCSc1nc(N2CCOCC2)c2c(c1C#N)CCCC2`, the activation is reported as “inactive”.
`COc1ccc(-c2oc3ncn4nc(Cc5ccccc5)nc4c3c2-c2ccc(OC)cc2)cc1` was tested, and the activation was “inactive”.
With `COc1ccc(CN(C(=O)CSc2nnc(-c3ccccc3F)o2)c2ccc(F)cc2)cc1` the activation was “inactive”.
`C=CCOC(=O)C1=C(C)NC(SCC(=O)Nc2ccc(C)c(Cl)c2)=C(C#N)C1c1ccco1` (stereo not given) was tested, and the activation was “inactive”.
With `COc1cccc2c1C(=O)c1c(O)c3c(c(O)c1C2=O)C[C@@](O)(C(C)=O)C[C@@H]3O[C@H]1C[C@H](N)[C@H](O)[C@H](C)O1` the activation was “inactive”.
`O=S(=O)(c1ccccc1)N(Cc1nc(-c2ccccc2)no1)C1CCCCC1` was tested, and the activation was “inactive”.
`C[C@]12CC[C@@H]3c4ccc(OC(=O)c5ccccc5)cc4CC[C@H]3[C@@H]1CC[C@@H]2O` was tested, and the activation was “inactive”.
For `Cc1ccc2c(C)nc(Nc3nc(CSc4nnnn4-c4ccccc4)cc(=O)[nH]3)nc2c1`, the activation was “inactive”.
`COc1ccc(-c2nnc(SCC(=O)Nc3ccc(Cl)cc3)n2C)cc1` was tested, and the activation was “inactive”.
With `Cc1ccc(SCc2c(C#N)c3ccccc3n2C)cc1` the activation was “inactive”.
In the case of `COC(=O)c1ccccc1NC(=O)c1ccc(-c2ccccc2F)o1`, the activation is reported as “inactive”.
In the case of `COc1cccc(-c2nc(-c3ccc(NC(=O)Cc4ccccc4OC)cc3)no2)c1`, the activation is reported as “inactive”.
`CCN(CC)c1ccc2cc(C(=O)Nc3ccccn3)c(=O)oc2c1` was tested, and the activation was “inactive”.
For `CC1(C)Cc2c(c(N3CCOCC3)nc3sc4c(NCc5ccco5)nnnc4c23)CS1`, the activation was “inactive”.
For `N#CCSc1nc2c(c(=O)n1Cc1ccco1)C1(CCCC1)Cc1ccccc1-2`, the activation was “inactive”.
In the case of `COC(=O)c1c(NC(=O)c2nn(C)cc2Cl)sc2c1CCCC2`, the activation is reported as “inactive”.
`COc1ccc(-c2noc(-c3cc(Cl)ccc3Cl)n2)cc1OC` was tested, and the activation was “inactive”.
With `COc1ccc2cc(CN(Cc3ccco3)C(c3nnnn3C3CCCCC3)C(C)C)c(=O)[nH]c2c1` (stereo not given) the activation was “inactive”.
`O=S(=O)(c1ccc(S(=O)(=O)N(Cc2ccco2)Cc2ccccc2Cl)cc1)N1CCCC1` was tested, and the activation was “inactive”.
With `COc1cc(C(=O)Nc2cccc(-c3nc4cc(C)ccc4o3)c2)cc(OC)c1OC` the activation was “inactive”.
In the case of `O=c1c(-c2ccc3c(c2)OCCO3)c(C(F)(F)F)oc2cc(O)cc(O)c12`, the activation is reported as “inactive”.
With `CCOc1ccc(S(=O)(=O)N2CCN(c3ccc(C)cc3C)CC2)cc1` the activation was “inactive”.
`CCOC(=O)c1sc(NC(=O)c2noc3c2CCCC3)c(C(=O)OCC)c1C` was tested, and the activation was “inactive”.
For `N/C(=N\c1nc2ccccc2o1)NC(=O)c1ccccc1NC(=O)c1ccccc1`, the activation was “inactive”.
With `CCSc1nnc(NC(=O)NC(CC)(C(F)(F)F)C(F)(F)F)s1` the activation was “inactive”.
With `CCOc1ccc2nc(NC(=O)CSc3nc4ccccc4c(=O)n3Cc3ccco3)sc2c1` the activation was “inactive”.
For `CCC(=O)Oc1ccc(C(CC)C(CC)c2ccc(OC(=O)CC)cc2)cc1` (stereo not given), the activation was “inactive”.
In the case of `Cc1ccc(Cl)cc1N1CCN(C(=O)CN2C(=O)c3cccc4cccc2c34)CC1`, the activation is reported as “inactive”.
